In article PMC5642494 (Oncotarget, 2017):

Columns and labels:
H3K9me3 [1] = test: Hypermethylation of histone H3 at lysine 9 (H3K9me3), EFM-19; type: cell-based, human; conditions: 2 DT, n = 1, read-out: EC50 H3K9me3 levels
Experimental: (§1) Relative IC50/EC50 values were determined by curve fitting to a four parameter logistic equation: Y = bottom + ((top-bottom)/ (1+exp(HillSlope*(X – LnIC50)), where X is the natural log of dose/concentration, Y is response, decreasing as X increases, top and bottom are plateaus in the same units as Y, lnIC50 is the natural log of potency, in the same log units as X, and HillSlope measures the steepness of the curve. Data were plotted using GraphPad Prism.
(§2) BioResearch) where indicated; the dates of acquisition and in an Acumen Explorer Ex3 (TTP Labtech), raw data testing are listed in parentheses: ZR-75-1; T-47D; MDA- were analyzed with Cellista software and then further MB-468; HCC70; BT-549; BT-20; MDA-MB-231; MDA- normalized in Excel against the values obtained for cells MB-175-VII, HCC-1937; MDA-MB-415. treated with 2 µM BEZ235, or vehicle (0.2% v/v DMSO); data were graphed using GraphPad Prism®. Images were SA-β-galactosidase immunocytochemical labeling taken by fluorescent microscopy using a Leica DMiL. […]
(§3) SA-β-gal Cell samples were lysed after treatment with expression was determined using the Senescence Cells 100 µL lysis buffer and transferred to a 96-well plate. […]
(§4) (BSA) (Invitrogen #15260-037) for 1 hour at 25°C. EdU Samples were analyzed by LC─MS/MS under the detection was performed using the Click-iT High Content conditions described below. […]

H3K9me3 [2] = test: Hypermethylation of histone H3 at lysine 9 (H3K9me3), MCF7; type: cell-based; conditions: Homo sapiens, 2 DT, n = 2, read-out: EC50 H3K9me3 levels
Experimental: as §1, §2, §3, §4

EC50 (H3K9me3 [1]; EFM-19): 23 nM | EC50 (H3K9me3 [1]; Homo sapiens, EFM-19, EFM-19): 23.2 nM | EC50 (H3K9me3 [2]): 340 ± 16 nM
Structure (SMILES): CCN1CCN(Cc2ccc(Nc3ncc(F)c(-c4cc(F)c5nc(C)n(C(C)C)c5c4)n3)nc2)CC1 [abemaciclib, Abemaciclib]
